The source of these data is patent US9249131B2, “Modulators of ATP-binding cassette transporters” (Vertex Pharmaceuticals Incorporated, priority 2003, dated 2016).

The target in the assay is T1, ΔF508-CFTR (Homo sapiens, UniProt P13569, DEL508-508).
T1 construct: expressed in transfected cells; host or cells: NIH3T3 mouse fibroblasts stably expressing ΔF508-CFTR for the optical, whole-cell and single-channel assays; Fisher rat epithelial (FRT) cells for Ussing chamber follow-up
Put plainly: Assays for ΔF508-CFTR correction and potentiator properties (membrane potential optical and electrophysiological methods). Format: cell-based. To be noted: CFTR modulation; for % Activity: % Efficacy; for EC50: tested using the above methods. An excerpt:
Assays for Detecting and Measuring ΔF508-CFTR Correction and Potentiator Properties of Compounds
A) Membrane Potential Optical Methods for Assaying ΔF508-CFTR Modulation Properties of Compounds
The optical membrane potential assay utilized voltage-sensitive FRET sensors described by Gonzalez and Tsien (See, Gonzales, J. E. and R. Y. Tsien (1995) “Voltage sensing by fluorescence resonance energy transfer in single cells” Biophys J 69 (4): 1272-80, and Gonzalez, J. E. and R. Y. Tsien (1997) “Improved indicators of cell membrane potential that use fluorescence resonance energy transfer” Chem Biol 4 (4): 269-77) in combination with instrumentation for measuring fluorescence changes such as the Voltage/Ion Probe Reader (VIPR) (See, Gonzalez, J. E., K. Oades, et al. (1999) “Cell-based assays and instrumentation for screening ion-channel targets” Drug Discov Today 4 (9): 431-439).
These voltage sensitive assays are based on the change in fluorescence resonant energy transfer (FRET) between the membrane-soluble, voltage-sensitive dye, DiSBAC2 (3), and a fluorescent phospholipid, CC2-DMPE, which is attached to the outer leaflet of the plasma membrane and acts as a FRET donor. Changes in membrane potential (Vm) cause the negatively charged DiSBAC2(3) to redistribute across the plasma membrane and the amount of energy transfer from CC2-DMPE changes accordingly. The changes in fluorescence emission were monitored using VIPR™ II, which is an integrated liquid handler and fluorescent detector designed to conduct cell-based screens in 96- or 384-well microtiter plates.
To identify small molecules that correct the trafficking defect associated with ΔF508-CFTR; a single-addition HTS assay format was developed. The cells were incubated in serum-free medium for 16 hrs at 37° C. in the presence or absence (negative control) of test compound. As a positive control, cells plated in 384-well plates were incubated for 16 hrs at 27° C. to “temperature-correct” ΔF508-CFTR. The cells were subsequently rinsed 3× with Krebs Ringers solution and loaded with the voltage-sensitive dyes. To activate ΔF508-CFTR, […] and the CFTR potentiator, genistein ([…]), were added along with Cl^−-free medium to each well. The addition of Cl^−-free medium promoted Cl^− efflux in response to ΔF508-CFTR activation and the resulting membrane depolarization was optically monitored using the FRET-based voltage-sensor dyes.
To identify potentiators of ΔF508-CFTR, a double-addition HTS assay format was developed. During the first addition, a Cl^−-free medium with or without test compound was added to each well. After 22 sec, a second addition of Cl^−-free medium containing 2-10 µM forskolin was added to activate ΔF508-CFTR. The extracellular Cl^− concentration following both additions was 28 mM, which promoted Cl^− efflux in response to ΔF508-CFTR activation and the resulting membrane depolarization was optically monitored using the FRET-based voltage-sensor dyes.
• Bath Solution #1: (in mM) NaCl 160, KCl 4.5, CaCl2 2, MgCl2 1, HEPES 10, pH 7.4 with NaOH. • Chloride-free bath solution: Chloride salts in Bath Solution #1 are substituted with gluconate salts. • CC2-DMPE: Prepared as a 10 mM stock solution in DMSO and stored at −20° C. • DiSBAC2(3): Prepared as a 10 mM stock in DMSO and stored at −20° C. Cell Culture
NIH3T3 mouse fibroblasts stably expressing ΔF508-CFTR are used for optical measurements of membrane potential. The cells are maintained at 37° C. in 5% CO2 and 90% humidity in Dulbecco's modified Eagle's medium supplemented with 2 mM glutamine, 10% fetal bovine serum, 1×NEAA, β-ME, 1×pen/strep, and 25 mM HEPES in 175 cm^2 culture flasks. For all optical assays, the cells were seeded at 30,000/well in 384-well matrigel-coated plates and cultured for 2 hrs at 37° C. before culturing at 27° C. for 24 hrs. for the potentiator assay. For the correction assays, the cells are cultured at 27° C. or 37° C. with and without compounds for 16-24 hours.

T1 sequence (P13569 with tags, fused parts or gaps DEL508-508): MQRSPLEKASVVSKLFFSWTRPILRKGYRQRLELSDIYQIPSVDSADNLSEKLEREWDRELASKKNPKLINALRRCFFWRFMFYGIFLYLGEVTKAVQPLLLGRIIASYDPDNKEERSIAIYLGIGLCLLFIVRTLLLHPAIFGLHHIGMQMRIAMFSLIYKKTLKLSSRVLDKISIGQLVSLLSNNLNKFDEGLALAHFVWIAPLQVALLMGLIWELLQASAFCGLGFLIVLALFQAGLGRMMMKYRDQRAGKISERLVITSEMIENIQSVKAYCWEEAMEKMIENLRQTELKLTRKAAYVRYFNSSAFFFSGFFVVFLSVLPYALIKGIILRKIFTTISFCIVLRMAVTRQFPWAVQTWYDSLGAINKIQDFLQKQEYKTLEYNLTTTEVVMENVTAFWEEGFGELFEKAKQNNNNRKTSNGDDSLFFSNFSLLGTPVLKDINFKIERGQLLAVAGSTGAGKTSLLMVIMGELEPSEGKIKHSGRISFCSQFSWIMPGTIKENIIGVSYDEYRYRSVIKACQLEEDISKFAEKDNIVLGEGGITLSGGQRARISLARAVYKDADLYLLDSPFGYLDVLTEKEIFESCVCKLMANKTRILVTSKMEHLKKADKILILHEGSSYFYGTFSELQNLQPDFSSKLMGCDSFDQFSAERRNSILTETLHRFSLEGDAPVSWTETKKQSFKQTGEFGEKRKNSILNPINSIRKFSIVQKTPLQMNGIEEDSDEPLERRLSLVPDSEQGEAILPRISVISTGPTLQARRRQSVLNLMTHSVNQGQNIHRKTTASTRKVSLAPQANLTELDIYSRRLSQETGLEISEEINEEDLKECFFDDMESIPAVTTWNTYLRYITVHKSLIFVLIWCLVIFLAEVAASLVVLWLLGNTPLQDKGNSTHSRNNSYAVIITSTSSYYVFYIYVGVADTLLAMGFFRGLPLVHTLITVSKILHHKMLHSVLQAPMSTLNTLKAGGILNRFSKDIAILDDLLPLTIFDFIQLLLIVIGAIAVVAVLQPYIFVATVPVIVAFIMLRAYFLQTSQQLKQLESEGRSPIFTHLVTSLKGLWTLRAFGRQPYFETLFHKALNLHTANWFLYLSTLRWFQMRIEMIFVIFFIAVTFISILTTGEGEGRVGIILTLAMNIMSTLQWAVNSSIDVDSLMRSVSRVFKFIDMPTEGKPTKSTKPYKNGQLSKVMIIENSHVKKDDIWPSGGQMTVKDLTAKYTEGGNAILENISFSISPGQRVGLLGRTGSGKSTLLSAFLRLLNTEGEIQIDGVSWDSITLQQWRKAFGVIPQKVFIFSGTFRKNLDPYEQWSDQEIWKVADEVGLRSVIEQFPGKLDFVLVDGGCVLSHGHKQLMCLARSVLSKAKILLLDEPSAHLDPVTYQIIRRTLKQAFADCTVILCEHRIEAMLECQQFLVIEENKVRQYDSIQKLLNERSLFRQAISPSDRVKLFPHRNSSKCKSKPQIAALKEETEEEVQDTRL

As to `CCOc1ccc2nc(NC(=O)C3CCCCC3)sc2c1` [compound 1], the “% Activity” value is reported as “++ (“++” means between 25% to 100%)” and the half-maximal effective concentration (EC50) was 10 to 25 µM.

On to `Cc1ccc(-c2csc(NC(=O)c3ccccc3)n2)c(C)c1` [compound 2], for which the “% Activity” value is “+++ (“+++” means >100%)” and the concentration for a half-maximal effect (EC50) is < 10 µM.

For the compound `CCCCC(=O)Nc1nc(-c2cc(C)ccc2C)cs1` [compound 3], the “% Activity” value was “++ (“++” means between 25% to 100%)” and the EC50 is 10 to 25 µM.

Regarding `COc1ccccc1-c1csc(NC(=O)c2ccc(C)cc2)n1` [compound 4], the “% Activity” value is “++ (“++” means between 25% to 100%)” and the half-maximal effective concentration (EC50) was < 10 µM.

Consider `COc1ccccc1-c1csc(NC(=O)c2cccc(C)c2)n1` [compound 5], for which the “% Activity” value was “++ (“++” means between 25% to 100%)” and the concentration for a half-maximal effect (EC50) lay within 10 to 25 µM.

In the case of `COc1ccc(C(=O)Nc2nc(-c3ccccc3OC)cs2)cc1` [compound 6], the “% Activity” value is “++ (“++” means between 25% to 100%)” and the EC50 fell in the range of 10 to 25 µM.

Take `COc1cccc(C(=O)Nc2nc(-c3ccccc3OC)cs2)c1` [compound 7]: the “% Activity” value is “+++ (“+++” means >100%)” and the concentration giving a half-maximal response (EC50) was in the range of 10 to 25 µM.

With `O=C(Nc1nc2c(s1)CCCC2)c1cccc(Br)c1` [compound 8], the “% Activity” value is “+++ (“+++” means >100%)” and the EC50 was < 10 µM.

For the compound `O=C(Nc1nc(-c2cccs2)cs1)c1cccc(Br)c1` [compound 9], the “% Activity” value was “++ (“++” means between 25% to 100%)” and the EC50 is < 10 µM.

For `CCc1ccc(C(=O)Nc2nc3ccccc3s2)cc1` [compound 10], the “% Activity” value was “+++ (“+++” means >100%)” and the concentration for a half-maximal effect (EC50) was 10 to 25 µM.

In the case of `CCCc1ccc(C(=O)Nc2nc3ccccc3s2)cc1` [compound 11], the “% Activity” value is “+++ (“+++” means >100%)” and the concentration giving a half-maximal response (EC50) lay in the range of 10 to 25 µM.

Take `CCCCc1ccc(C(=O)Nc2nc3ccccc3s2)cc1` [compound 12]: the “% Activity” value is “+++ (“+++” means >100%)” and the EC50 was < 10 µM.

Turning to `COc1ccc(-c2ccc(C(=O)Nc3nccs3)cc2)cc1` [compound 13], the “% Activity” value is “++ (“++” means between 25% to 100%)” and the half-maximal effective concentration (EC50) is < 10 µM.

Take `COc1ccc(-c2ccc(C(=O)Nc3nc4ccccc4s3)cc2)cc1` [compound 14]: the “% Activity” value is on record as “++ (“++” means between 25% to 100%)” and the EC50 was < 10 µM.

Turning to `COc1ccc(-c2ccc(C(=O)Nc3nc4ccc(OC)cc4s3)cc2)cc1` [compound 15], the “% Activity” value is listed as “++ (“++” means between 25% to 100%)” and the half-maximal effective concentration (EC50) is < 10 µM.

Regarding `CCCCc1ccc(C(=O)Nc2nccs2)cc1` [compound 16], the “% Activity” value was “+++ (“+++” means >100%)” and the EC50 is < 10 µM.

`O=C(Nc1nc(-c2ccccc2)cs1)C12CC3CC(CC(C3)C1)C2` [compound 17]: the “% Activity” value is on record as “++ (“++” means between 25% to 100%)” and the EC50 was < 10 µM.

As to `O=C(Nc1ncc(-c2ccccc2)s1)c1ccccc1` [compound 18], the “% Activity” value is recorded as “++ (“++” means between 25% to 100%)” and the EC50 fell in the range of 10 to 25 µM.

On to `O=C(Nc1ncc(Cc2ccccc2Cl)s1)c1ccccc1Cl` [compound 19], for which the “% Activity” value is listed as “++ (“++” means between 25% to 100%)” and the EC50 was 10 to 25 µM.

For `O=C(O)CSCC(=O)Nc1nc(-c2ccccc2)c(-c2ccccc2)s1` [compound 20], the “% Activity” value is on record as “++ (“++” means between 25% to 100%)” and the EC50 lay within 10 to 25 µM.

In the case of `O=C(Nc1nc(-c2ccccc2)cs1)c1ccccc1` [compound 21], the “% Activity” value is on record as “++ (“++” means between 25% to 100%)” and the EC50 was in the range of 10 to 25 µM.

For the compound `O=C(Nc1ncc(Cc2cccc(Cl)c2Cl)s1)C1CC1` [compound 22], the “% Activity” value is recorded as “++ (“++” means between 25% to 100%)” and the 50% effective concentration (EC50) fell in the range of 10 to 25 µM.

Turning to `O=C(Nc1ncc(Cc2cccc(Cl)c2)s1)c1ccccc1` [compound 23], the “% Activity” value was “++ (“++” means between 25% to 100%)” and the EC50 is < 10 µM.

Broadly, the EC50 is the concentration at which the effect is half-maximal.
